According to the NIST ThermoML archive (doi:10.1016/j.jct.2018.04.018):
Numbers after ± are expanded uncertainties.

Assay: molar heat capacity at constant pressure
Details: 101.33 kPa, Liquid, DSC

CCCCCCCC[n+]1ccn(C)c1.F[P-](F)(F)(F)(F)F [1-octyl-3-methylimidazolium hexafluorophosphate]
Details	molar heat capacity at constant pressure [J/K/mol]
253.15 K	549.23 ± 21
258.15 K	551.95 ± 21
263.15 K	554.33 ± 21
268.15 K	556.71 ± 21
273.15 K	559.77 ± 22
278.15 K	562.84 ± 22
283.15 K	566.92 ± 22
288.15 K	570.32 ± 22
293.15 K	573.73 ± 22
298.15 K	577.47 ± 22
303.15 K	580.53 ± 22
308.15 K	584.28 ± 23
313.15 K	587.34 ± 23
318.15 K	590.4 ± 23
323.15 K	593.46 ± 23
328.15 K	597.21 ± 23
333.15 K	600.27 ± 23
338.15 K	602.99 ± 23
343.15 K	606.05 ± 23
348.15 K	608.78 ± 23
353.15 K	611.84 ± 24
358.15 K	614.22 ± 24
363.15 K	617.28 ± 24
368.15 K	620.01 ± 24
373.15 K	622.39 ± 24
378.15 K	625.45 ± 24
383.15 K	628.17 ± 24
388.15 K	630.55 ± 25
393.15 K	633.28 ± 25
398.15 K	636.68 ± 25
403.15 K	639.74 ± 25
408.15 K	643.83 ± 25
413.15 K	646.89 ± 25
